Measured values: patent US20100210017A1, “COMPOSITIONS AND METHODS FOR ENHANCING TOLERANCE FOR THE PRODUCTION OF ORGANIC CHEMICALS PRODUCED BY MICROORGANISMS” (priority 2007, published 2010)
In brackets after ≈: the same amount, converted by molar mass. Where two headings read alike, the source gives them in different places.

Tests used:
Type in all cases: cell-based
[1] = system: Escherichia coli strain Mach1-T1^R containing pSMART-LCKAN empty vector; experiment: Growth confirmations: media supplementation in presence of 3-HP; settings: for effect on specific growth in the presence of 3-HP: supplementation of the growth medium, 3-HP present
Source text: Some methods concern wild-type Escherichia coli K12 (ATCC # 29425) used for the preparation of genomic DNA. Genomic libraries were constructed using the pSMART-LCKAN (Lucigen, Middleton, Wis.). Libraries were introduced into Escherichia coli strain Mach1-T1^R (Invitrogen, Carlsbad, Calif.) for selections as previously detailed. Mach1-T1^R containing pSMART-LCKAN empty vector were used for all control studies. Growth curves were done in MOPS Minimal Media. In this example, the antibiotic concentration was 20 ug kanamycin/mL.
Overnight cultures of Mach1-T1^R+pSMART LC-KAN were inoculated into 5 mL LB+kanamycin. Growth curves were constructed by inoculating into 15 mL screw cap tubes containing supplements (Table 1) and 15 mL MOPS Minimal Media+kanamycin+3-HP from overnight culture. Cultures were incubated at 37° C. and optical density was monitored to an OD600>0.2. Cultures were then diluted to an exact OD600=0.2 and were used to inoculate cultures containing 15 mL MOPS Minimal Media+kanamycin+3-HP (pH=7.0) to an initial optical density of […] in order to minimize effects of growth in stationary phase. Optical density was monitored and recorded over the entire range of microaerobic growth in minimal media, or until a final OD600 0.5-0.6. Growth parameters were evaluated in terms of specific growth, OD600 at the culmination of the growth phase (approximately 14 hours), and OD600 at conclusion of maximum growth phase and final OD600 (24 hrs). To address specific intermediate limitations, associated chorismate pathway supplements were added to final concentrations listed in Table 1.
To confirm these findings, the culture medium was supplemented with products synthesized downstream of chorismate. The addition of each product individually stimulated growth, further confirming that the inhibition is occurring at, or prior to synthesis of chorismate (FIG. 3B). FIG. 3B represents growth confirmations: addition of products downstream of chorismate partially alleviate growth inhibition confirmed by increased specific growth (black) and increased OD600 at the culmination of the growth phase (grey). However, increasing the supplementation of several downstream products (tyrosine, phenylalanine, tryptophan) results in feedback inhibition of the first committed step to the chorismate super-pathway and will therefore reduce formation of other downstream products including ubiquinone, meniquinone, and tetrahydrofolate and limit the associated growth benefits.

E. coli Mach1 = experiment: Minimum inhibitory concentration of acrylic acid in minimal media; settings: Escherichia coli
Procedure: 3-HP composition obtained, for example, from TCI America for initial library selections and all subsequent growth confirmations can contain variable amounts of acrylic acid contamination. A minimum inhibitory concentration of acrylic acid for E. coli Mach1 grown in minimal media was determined to be around 0.6 g/L. In support that the tolerance mechanism specific to the chorismate super-pathway are exclusive to 3-HP toxicity, the minimum inhibitory concentrations of acrylic acid was determined to be 0.6 g/L for E. coli Mach1 grown in minimal media supplemented with addition of shikimate or homocysteine. Additionally, the minimal inhibitory concentration was determined to be 0.6 g/L for the feedback resistant aroH mutants grown in minimal media.

[2] = system: bacterial culture capable of producing 3-HP; experiment: 3-HP production with exogenously added tyrosine; settings: 0.2 mM tyrosine added to culture
Procedure: In certain embodiments, exogenously added tyrosine can be added to a bacterial culture capable of producing 3-HP. In certain particular embodiments, tyrosine concentrations can be about 0.05 mM to about 0.5 mM. In one example, 0.2 mM tyrosine was added to a culture and the increase in 3-HP production was about 35%.

[3] = system: E. coli (vector control; clone expressing aroH mutant); experiment: 24 hour minimum inhibitory concentration of 3-HP in M9 minimal media; settings: Escherichia coli
Procedure: By use of the SCALEs methodology, a number of genetic targets for alleviating growth inhibition in the presence of 3-HP have been identified. […] A clone was constructed containing the tyrA-aroF operon and was cultured in the presence of 20 g/L 3-HP. Increased copy of this region partially alleviated growth inhibition, conferring a 15% increase in specific growth. […] One method to bypass this inherent control was obtaining an inducible feedback resistant aroH mutant that will increase the conversion of E-4-P while maintaining activity in the presence of increasing pools of downstream products, thus alleviating growth inhibition due to impaired synthesis of necessary byproducts of the chorismate pathway. […] In addition, the 24 hour minimum inhibitory concentration of 3-HP (the minimum concentration to stop visible growth at 24 hours) in M9 minimal media increased from 25 g/L for a vector control to 40 g/L for an E. coli clone expressing this aroH mutant. In certain embodiments herein, it is contemplated that the aroH mutant can be of use alone, or in combination with other genetic manipulations or selection to increase tolerance of 3-HP production in microorganisms.

N[C@@H](Cc1ccccc1)C(=O)O [Phenylalanine, phenylalanine]
effect on specific growth in the presence of 3-HP [1]: detrimental effect

C=CC(=O)O [acrylic acid]
MIC (E. coli Mach1; MACH1, E. coli Mach1, minimal media supplemented with shikimate or homocysteine, read-out: minimum inhibitory concentration): 600 µg/mL (≈ 8.33 mM)
MIC (E. coli Mach1; MACH1, E. coli Mach1 grown in minimal media, read-out: minimum inhibitory concentration): ~600 µg/mL (≈ 8.33 mM)
MIC (E. coli Mach1; MACH1, read-out: minimal inhibitory concentration, feedback resistant aroH mutants grown in minimal media): 600 µg/mL (≈ 8.33 mM)

N[C@@H](Cc1ccc(O)cc1)C(=O)O [Tyrosine, tyrosine]
effect on specific growth in the presence of 3-HP [1]: beneficial effect
increase in 3-HP production [2]: about 35%

O=C(O)CCO [3-HP, 3-hydroxypropionic acid]
MIC ([3]; read-out: 24 hour minimum inhibitory concentration (minimum concentration to stop visible growth at 24 hours), M9 minimal media, E. coli clone expressing feedback resistant aroH mutant): 40000 µg/mL
MIC ([3]; read-out: 24 hour minimum inhibitory concentration (minimum concentration to stop visible growth at 24 hours), M9 minimal media, vector control): 25000 µg/mL

O=C(O)C1=C[C@@H](O)[C@@H](O)[C@H](O)C1 [Shikimate, shikimate]
regeneration of growth compared with wild-type growth ([1]; addition of shikimate to growth media under 3-HP stress): about 20%
effect on specific growth in the presence of 3-HP [1]: dramatic increase in growth
